Results reported in the supplement of paper PMC4862054.
One block for each compound: values may come before it.

Tests used:
Conditions in all cases: 72 h
[1] = test system: Hs578T
Protocol: (§1)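 Drug sensitivity and resistance testing (DSRT) of breast cancer cell lines in 384-well plates, 5 concentrations in 10-fold dilutions over a compound-specific 10,000-fold range. After 72 h, cytotoxicity was read by CellTox Green fluorescence and viability by CellTiter-Glo luminescence (multiplexed), normalised to DMSO and benzethonium chloride controls. EC50 is the inflection point of the fitted dose-response curve (bottom asymptote free, so it can be relative for partial curves) and is censored at the highest tested concentration. Rows with DSS 0 (no meaningful response) were excluded.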

[2] = test system: HCC1937
Method in brief: (§2)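 For viability, cells received 2.5 µl CellTiter-Blue for 2 h at 37 °C and fluorescence was read at 560/590 nm. Before this, breast cancer cell lines in 20 µl suspension had been incubated for 72 h on 384-well plates pre-loaded with compound dissolved in 5 µl medium. EC50 was obtained from a percent-inhibition dose-response fit censored at the highest concentration, after normalisation of each plate to vehicle and a positive kill control; rows with a zero drug sensitivity score were discarded.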

[3] = test system: HCC1599
Method in brief: as §2

[4] = test system: MDA-MB-468
Protocol: as §1

[5] = test system: CAL-148
Method in brief: as §2

[6] = test system: CAL-51
Method in brief: as §2

[7] = test system: HDQ-P1
Method in brief: as §2

[8] = test system: DU-4475
Method in brief: as §2

[9] = test system: MDA-MB-453
Method in brief: as §2

[10] = test system: CAL-85-1
Method in brief: as §2

[11] = test system: SK-BR-3
Method in brief: as §2

[12] = test system: HCC1143
Method in brief: as §2

[13] = test system: MDA-MB-231
Method in brief: as §2

[14] = test system: BT-474
Method in brief: as §2

[15] = test system: BT-549
Method in brief: as §2

[16] = test system: CAL-120
Method in brief: as §2

[17] = test system: Hs578T; remark: listed apart in the source
Method in brief: as §2

[18] = test system: MFM-223
Method in brief: as §2

[19] = test system: MDA-MB-436
Method in brief: as §2

[20] = test system: MDA-MB-468; remark: listed apart in the source
Method in brief: as §2

[21] = test system: CAL-120; remark: listed apart in the source
Method in brief: (§3)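 For viability and cell death testing, 384-well plates carried compound at 5 concentrations in 10-fold steps over a compound-specific 10,000-fold range, and breast cancer cell lines were seeded in 20 µl suspension. After 72 h incubation, cell death was read by CellTox Green fluorescence (485/520 nm) before viability was read by CellTiter-Glo luminescence. EC50 was fitted from the dose-response curves and censored at the top concentration. Normalisation on each plate was to 0.1 % DMSO and a positive kill control.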

[22] = test system: BT-474; remark: listed apart in the source
Protocol: as §1

[23] = test system: BT-549; remark: listed apart in the source
Protocol: as §1

[24] = test system: CAL-51; remark: listed apart in the source
Protocol: as §1

[25] = test system: CAL-148; remark: listed apart in the source
Method in brief: as §3

[26] = test system: HCC1937; remark: listed apart in the source
Method in brief: as §3

[27] = test system: SK-BR-3; remark: listed apart in the source
Method in brief: as §3

[28] = test system: HCC1143; remark: listed apart in the source
Method in brief: as §3

[29] = test system: MDA-MB-231; remark: listed apart in the source
Method in brief: as §3

[30] = test system: BT-474; remark: listed apart in the source
Method in brief: as §3

[31] = test system: BT-549; remark: listed apart in the source
Method in brief: as §3

[32] = test system: CAL-51; remark: listed apart in the source
Method in brief: as §3

[33] = test system: HDQ-P1; remark: listed apart in the source
Method in brief: as §3

[34] = test system: HCC1599; remark: listed apart in the source
Method in brief: as §3

[35] = test system: DU-4475; remark: listed apart in the source
Method in brief: as §3

[36] = test system: MFM-223; remark: listed apart in the source
Method in brief: as §3

[37] = test system: MDA-MB-453; remark: listed apart in the source
Method in brief: as §3

[38] = test system: MDA-MB-436; remark: listed apart in the source
Method in brief: as §3

[39] = test system: MDA-MB-468; remark: listed apart in the source
Method in brief: as §3

[40] = test system: CAL-85-1; remark: listed apart in the source
Method in brief: as §3

[41] = test system: MDA-MB-231; remark: listed apart in the source
Protocol: as §1

[42] = test system: Hs578T; remark: listed apart in the source
Method in brief: as §3

[43] = test system: MDA-MB-436; remark: listed apart in the source
Protocol: as §1

EC50, CellTiter-Blue viability [2]: > 10000 nM
EC50, CellTiter-Blue viability [3]: 311 nM
Structure (SMILES): N#Cc1ccc(C(c2ccc(C#N)cc2)n2cncn2)cc1 [Letrozole]
EC50, CellTox Green [1]: > 10000 nM

EC50, CellTiter-Blue viability [9]: 1260 nM
EC50, CellTiter-Blue viability [2]: 519 nM
EC50, CellTiter-Blue viability [11]: 1520 nM
EC50, CellTiter-Blue viability [12]: 1520 nM
EC50, CellTiter-Blue viability [13]: 614 nM
EC50, CellTiter-Blue viability [14]: 1760 nM
EC50, CellTiter-Blue viability [15]: 1440 nM
EC50, CellTiter-Blue viability [19]: 1290 nM
EC50, CellTiter-Blue viability [20]: 1430 nM
Structure (SMILES): CCN(CC)CCCC(C)Nc1c2ccc(Cl)cc2nc2ccc(OC)cc12 (centres undefined) [Mepacrine]
EC50, CellTox Green [4]: > 50000 nM
EC50, CellTiter-Blue viability [5]: 1140 nM
EC50, CellTiter-Blue viability [6]: 1950 nM
EC50, CellTiter-Blue viability [7]: 833 nM
EC50, CellTiter-Blue viability [8]: 1600 nM
EC50, CellTiter-Blue viability [10]: 1800 nM
EC50, CellTiter-Blue viability [16]: 1120 nM
EC50, CellTiter-Blue viability [17]: 1980 nM
EC50, CellTiter-Blue viability [18]: 2220 nM

EC50, CellTiter-Blue viability [9]: 27.7 nM
EC50, CellTiter-Blue viability [15]: 520 nM
Structure (SMILES): C[C@H]1C[C@@H]2[C@H]([C@@H](O)C[C@@]3(C)[C@H]2CC[C@]3(O)C(=O)CO)[C@@]2(C)C=CC(=O)C=C12 [Methylprednisolone]
EC50, CellTiter-Glo [21]: 23.5 nM

EC50, CellTiter-Blue viability [9]: 7470 nM
EC50, CellTiter-Blue viability [2]: 4810 nM
EC50, CellTiter-Blue viability [11]: 9660 nM
EC50, CellTiter-Blue viability [12]: 8310 nM
EC50, CellTiter-Blue viability [15]: 3550 nM
EC50, CellTiter-Blue viability [3]: 820 nM
EC50, CellTiter-Blue viability [19]: 4310 nM
EC50, CellTiter-Blue viability [20]: 3250 nM
Structure (SMILES): O=C(O)C(=O)O.[NH-][C@@H]1CCCC[C@H]1[NH-].[Pt+2] [Oxaliplatin]
EC50, CellTiter-Blue viability [5]: 5670 nM
EC50, CellTiter-Blue viability [6]: 9110 nM
EC50, CellTiter-Blue viability [8]: 9220 nM

EC50, CellTiter-Glo [26]: 5300 nM
EC50, CellTiter-Glo [27]: 5200 nM
EC50, CellTiter-Glo [28]: 6700 nM
EC50, CellTiter-Glo [29]: 3100 nM
EC50, CellTiter-Glo [30]: 3910 nM
EC50, CellTiter-Glo [31]: 1230 nM
EC50, CellTiter-Glo [34]: 7690 nM
EC50, CellTiter-Glo [37]: 2610 nM
EC50, CellTiter-Glo [38]: 3480 nM
EC50, CellTiter-Glo [39]: 4580 nM
Structure (SMILES): C=CCc1cccc(/C=N/NC(=O)CN2CCN(Cc3ccccc3)CC2)c1O [PAC-1]
EC50, CellTox Green [22]: 3520 nM
EC50, CellTox Green [23]: 1190 nM
EC50, CellTox Green [24]: 413 nM
EC50, CellTiter-Glo [25]: 6670 nM
EC50, CellTiter-Glo [32]: 1620 nM
EC50, CellTiter-Glo [21]: 3790 nM
EC50, CellTiter-Glo [33]: 4980 nM
EC50, CellTiter-Glo [35]: 4350 nM
EC50, CellTiter-Glo [36]: 8680 nM
EC50, CellTiter-Glo [40]: 5250 nM

EC50, CellTiter-Glo [26]: 64.1 nM
EC50, CellTiter-Glo [27]: 23.1 nM
EC50, CellTiter-Glo [29]: 652 nM
EC50, CellTiter-Glo [30]: 408 nM
EC50, CellTiter-Glo [38]: 30.3 nM
EC50, CellTiter-Blue viability [11]: 116 nM
EC50, CellTiter-Blue viability [12]: > 10000 nM
Structure (SMILES): Nc1nc2[nH]cc(CCc3ccc(C(=O)N[C@@H](CCC(=O)O)C(=O)O)cc3)c2c(=O)[nH]1 [Pemetrexed]
EC50, CellTox Green [41]: 2830 nM
EC50, CellTox Green [1]: 9350 nM
EC50, CellTox Green [4]: 8620 nM
EC50, CellTiter-Glo [32]: 2.23 nM
EC50, CellTiter-Glo [42]: 47.4 nM
EC50, CellTiter-Glo [40]: 41.1 nM
EC50, CellTiter-Blue viability [10]: 878 nM
EC50, CellTiter-Blue viability [16]: > 10000 nM

EC50, CellTiter-Glo [26]: 5960 nM
EC50, CellTiter-Glo [27]: 3820 nM
EC50, CellTiter-Glo [28]: 2450 nM
EC50, CellTiter-Glo [30]: 2340 nM
EC50, CellTiter-Glo [31]: 2640 nM
EC50, CellTiter-Glo [34]: 3060 nM
EC50, CellTiter-Glo [38]: 27.6 nM
EC50, CellTiter-Glo [39]: 5910 nM
Structure (SMILES): CC[C@H](C)C(=O)O[C@H]1C[C@H](O)C=C2C=C[C@H](C)[C@H](CC[C@@H](O)C[C@@H](O)CC(=O)O)[C@H]21 [Pravastatin]
EC50, CellTox Green [23]: > 10000 nM
EC50, CellTox Green [24]: 3380 nM
EC50, CellTox Green [43]: 15.7 nM
EC50, CellTox Green [4]: 5470 nM
EC50, CellTiter-Glo [25]: 6540 nM
EC50, CellTiter-Glo [32]: 78 nM
EC50, CellTiter-Glo [21]: 2310 nM
EC50, CellTiter-Glo [33]: 4740 nM
EC50, CellTiter-Glo [35]: 6590 nM
EC50, CellTiter-Glo [36]: > 10000 nM
EC50, CellTiter-Glo [40]: 8620 nM
